Entries after “also recorded” stand apart in the source; their conditions may differ. Where two headings read alike, the source gives them in different places.
Experiments:
Colα1-mRNA = test: Light-induced expression of Colα1-mRNA in skin models (Northern blot); type: cell-based; conditions: for Collagen expression: exposed, 0 ppm unexposed = 100; for percentage change in the expression of Colα1: by comparison with exposed, untreated cultures
Method: (§1) To this end, the quantity of mRNA was quantified for MMP1, TIMP and Colaα1. Skin models were treated with the test substances for 12 hours and then exposed to simulated sunlight corresponding to a dose of 10 J UV-A/cm^2. After another 48 hours in the presence of the active substances, the RNA of the cells was prepared and analyzed by Northern blots with specific gene probes. To monitor the quantity of RNA used in the experiments, Northern blots were carried out with an 18S-specific gene probe. To quantify the signal intensities, the autoradiograms were evaluated by densitometry and the values of the signals for MMP1, TIMP and Colα1, were related to the associated values of the 18S signals. The figures in Table 1 represent the densitometric quantification of the signals of a Northern blot after normalization thereof.

[1] = test system: fungal tyrosinase (Sigma); test: Inhibition of tyrosinase activity (L-DOPA to dopachromium, absorption at 475 nm); type: biochemical; conditions: for Residual tyrosinase activity in %: without active substance = 100%
Method: Tyrosinases physiologially catalyze an important step in the synthesis of melanin (L-dopa to L-dopaquinone which is further cyclized and re-reacted by a tyrosinase to dopachromium). Accordingly, inhibition of the tyrosinase can lead to a skin lightening effect.
The activity of fungal tyrosinase (Sigma) was determined in the presence of various concentrations of the active substances according to the invention by enzymatic reaction of LDOPA to dopachromium. The absorption maximum of dopachromium (red-brown) is at λ=475 nm. The linear increase in the absorption (A) of the dopachromium per unit of time (t) is a measure of the activity of the tyrosinase (ΔN/Δt). The activity of the tyrosinase in the absence of the active substances (ΔA1/Δt1) was used as reference (100%). Under analogous conditions, the residual tyrosinase activity was determined in the presence of the active substances (ΔA2/Δt2). Each measurement was carried out twice in parallel runs. The variation of the results of the method is ca.±10%.
50 mM KH2PO4 buffer in bidist. water (adjustment to pH 6.5 with 1 M aqueous KOH) 2.5 mM L-DOPA in bidist. water 340 U/ml tyrosinase stock solution in cold KH2PO4 buffer, pH 6.5. Stock solutions of the active substance to be tested in bidist. water or ethanol in which the concentration of the active substance was 10 times higher than indicated in the line “active substance concentration in the test system” under “results”.
Like the tyrosinase stock solution, the reaction cocktail was prepared just before the beginning of the test. The tyrosinase stock solution has to be kept in a refrigerator. The L-DOPA solutions should be stored in darkness and in tightly closed containers in the absence of oxygen. If it turns grey in color (oxidation by atmospheric oxygen), the solution must be freshly prepared.
33 μl tyrosinase stock solution 100 μl active substance stock solution reaction cocktail to 1000 μl
The activity of the tyrosinase in the absence of the active substances was used as reference (100%). All samples were thoroughly mixed in a Vibrofix before the beginning of the measurement. The pH value was monitored and if necessary was adjusted to pH 6.5. The measurement was carried out with a Kontron Uvikon 860 photometer. The absorption of the dopachromium was detected for 5 mins. at 25° C. at the absorption maximum X of 475 nm, the measuring time being 20-30 s.

fibroblasts = test: Collagen production at protein level, fibroblasts in three-dimensional culture system; type: cell-based; conditions: 5 days, treated against untreated cultures
Method: On the sixth day, the quantity of collagen formed compared with non-collagen protein was determined via the incorporation of titrated protein.

[2] = test system: Dermal fibroblasts of human skin; test: Phototoxicity, MTT test after simulated sunlight (10 J UV-A/cm^2); type: cell-based
Method: Dermal fibroblasts of human skin were cultivated with increasing concentrations of retinol (Table 1), 6-O-naringin-(p-Cl-phenylacetic acid)ester (Table 2) and 6-O-naringin-(3-phenylpropionic acid)-ester (Table 3). The phototoxicity of the substances was measured by an MTT test. To determine phototoxicity, the treated cells were exposed to simulated sunlight corresponding to a dose of 10 J UV-A/cm^2. The vitality of untreated cells was put at 100% and all other values were related to that value.
The exposure of the cells was carried out with a sunlight simulator from the emission spectrum of which the UV-A component of the radiation was measured for quantification. The advantage of this experimental design is the fact that the complete spectrum of the sunlight is used so that the everyday situation is excellently simulated. By contrast, many other research laboratories use pure UV-A and for UV-B lamps.

TIMP-mRNA = test: Light-induced expression of TIMP-mRNA in skin models (Northern blot); type: cell-based; conditions: for TIMP expression: 0 ppm unexposed = 100; for percentage change in the expression of TIMP: by comparison with exposed, untreated cultures
Method: as §1

MMP-1-mRNA = test: Light-induced expression of MMP-1-mRNA in skin models (Northern blot); type: cell-based; conditions: for MMP 1 expression: 0 ppm unexposed = 100; for percentage change in the expression of MMP: by comparison with exposed, untreated cultures
Method: as §1

C[C@@H]1O[C@@H](O[C@H]2[C@H](Oc3cc(O)c4c(c3)O[C@H](c3ccc(O)cc3)CC4=O)O[C@H](COC(=O)CCc3ccccc3)[C@@H](O)[C@@H]2O)[C@H](O)[C@H](O)[C@H]1O [6-O-naringin-(3-phenylpropionic acid)-ester]
Collagen expression (Colα1-mRNA; 10 ppm): 74% | expression of Colα1 (in words) (Colα1-mRNA; 100 ppm): increased to the level of the unexposed, untreated culture | Collagen expression (Colα1-mRNA; 100 ppm): 99% | percentage change in the expression of Colα1 (Colα1-mRNA; 100 ppm): 64% | Residual tyrosinase activity in % ([1]; active substance 0.005% (w/v in bidist H2O)): 98.9% | Residual tyrosinase activity in % ([1]; active substance 0.05% (w/v in bidist H2O)): 69.1% | Residual tyrosinase activity in % ([1]; active substance 0.5% (w/v in bidist H2O)): 0.7% | IC 50 (tyrosinase) ([1]; w/v in bidist H2O): 0.18% | Increase in collagen production (fibroblasts; 1 ppm): 8% | Increase in collagen production (fibroblasts; 10 ppm): 8% | Increase in collagen production (fibroblasts; 100 ppm): 19% | Phototoxicity (in words) [2]: only show toxic effects in relatively high concentrations | TIMP expression (TIMP-mRNA; 10 ppm, exposed): 104% | TIMP production (in words) (TIMP-mRNA; 100 ppm): increased TIMP production considerably | increase in expression of TIMP (TIMP-mRNA; 100 ppm, exposed): around 35% | TIMP expression (TIMP-mRNA; 100 ppm, exposed): 134% | percentage change in the expression of TIMP (TIMP-mRNA; 100 ppm): 50% | MMP 1 expression (MMP-1-mRNA; 10 ppm, exposed): 167% | sunlight-induced expression of MMP-1 (in words) (MMP-1-mRNA; 100 ppm): reduced the sunlight-induced expression of MMP-1 to the level of the unexposed, untreated sample | MMP 1 expression (MMP-1-mRNA; 100 ppm, exposed): 87% | percentage change in the expression of MMP (MMP-1-mRNA; 100 ppm): −37%

CC1OC(OC2C(Oc3cc(O)c4c(c3)OC(c3ccc(O)cc3)CC4=O)OC(COC(=O)Cc3ccc(Cl)cc3)C(O)C2O)C(O)C(O)C1O (stereo not shown) [6-O-naringin-(p-Cl-phenylacetic acid)-ester]
Collagen expression (Colα1-mRNA; 5 ppm): 56% | Collagen expression (Colα1-mRNA; 50 ppm): 79% | percentage change in the expression of Colα1 (Colα1-mRNA; 50 ppm): 27% | expression of Colα1 (in words) (Colα1-mRNA; 50 ppm, in relation to the exposed, untreated sample): distinctly increased | Residual tyrosinase activity in % ([1]; active substance 0.01% (w/v in 98% ethanol)): 45.1% | Residual tyrosinase activity in % ([1]; active substance 0.1% (w/v in 98% ethanol)): 15.4% | Increase in collagen production (fibroblasts; 5 ppm): −3% | Increase in collagen production (fibroblasts; 50 ppm): 41% | Vitality (%; in brackets: SEM) ([2]; 5 ppm, 10 J UV-A/cm^2, untreated cells = 100%): 115 (15) % | Vitality (%; in brackets: SEM) ([2]; 10 ppm, 10 J UV-A/cm^2, untreated cells = 100%): 96 (17.2) % | Vitality (%; in brackets: SEM) ([2]; 50 ppm, 10 J UV-A/cm^2, untreated cells = 100%): 81 (8.3) % | Vitality (%; in brackets: SEM) ([2]; 100 ppm, 10 J UV-A/cm^2, untreated cells = 100%): 3 (1.7) % | Vitality (%; in brackets: SEM) ([2]; 500 ppm, 10 J UV-A/cm^2, untreated cells = 100%): 3 (1.8) % | Phototoxicity (in words) ([2]; compared with retinol, 10 J UV-A/cm^2): only show toxic effects in relatively high concentrations | TIMP expression (TIMP-mRNA; 5 ppm, exposed): 62% | expression of TIMP (in words) (TIMP-mRNA; 50 ppm): only slightly affected; also recorded: only a slight effect | TIMP expression (TIMP-mRNA; 50 ppm, exposed): 77% | percentage change in the expression of TIMP (TIMP-mRNA; 50 ppm): −15% | MMP 1 expression (MMP-1-mRNA; 5 ppm, exposed (10 J UV-A/cm^2)): 129% | sunlight-induced expression of MMP-1 (in words) (MMP-1-mRNA; 50 ppm): very effectively reduced | MMP 1 expression (MMP-1-mRNA; 50 ppm, exposed): 40% | percentage change in the expression of MMP (MMP-1-mRNA; 50 ppm): −70%

CC1=C(/C=C/C(C)=C/C=C/C(C)=C/CO)C(C)(C)CCC1 [retinol, reference compound]
Phototoxicity (in words) [2]: toxic in very low concentrations | Vitality (%; in brackets: SEM) ([2]; human, 0.0028 ppm): 99 (7.4) % | Vitality (%; in brackets: SEM) ([2]; human, 0.014 ppm): 95 (19.8) % | Vitality (%; in brackets: SEM) ([2]; human, 0.028 ppm): 80 (25.9) % | Vitality (%; in brackets: SEM) ([2]; human, 0.14 ppm): 28 (11.8) % | Vitality (%; in brackets: SEM) ([2]; human, 0.28 ppm): 4 (2.1) %

Reference: patent US20080176811A1, “NOVEL FLAVONE GLYCOSIDE DERIVATIVES FOR USE IN COSMETICS, PHARMACEUTICALS AND NUTRITION” (priority 2000, published 2008)
